The record followed here is patent US20200138827A1, “SMALL MOLECULE MODULATORS OF HUMAN STING” (Curadev Pharma Limited, priority 2017, published 2020).

The target of one assay is T1, hSTING(HAQ) (Homo sapiens, UniProt Q86WV6, G230A/H232R/R293Q/R71H).
T1 construct: host or cells: HEK293T
The experiment in a line: Luciferase reporter assay in HEK293T-hSTING-Luciferase cells, HAQ polymorph. The settings on record: 20 hr stimulation, read-out: HAQ activity (EC50 range). Format: cell-based. The method in brief: (§1)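 HEK293T clones stably expressed the given human STING variant plus luciferase under an ISRE/ISG54 IRF-inducible promoter. 5×10^5 cells were stimulated with compound for 20 hr, and secreted luciferase in the supernatant was measured by Quanti-Luc luminescence.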

Another assay has as its target T2, WT/R232 STING protein (Homo sapiens, UniProt Q86WV6, H232R).
T2 construct: host or cells: HEK293T
As to the kind of experiment: Luciferase reporter assay in HEK293T-hSTING-Luciferase cells, WT/R232. Format: cell-based. The note with it: 20 hr stimulation, read-out: R232 Activity (EC50 range). The method in brief:
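Clonal HEK293T cells stably expressing human STING R232 plus an ISRE/ISG54-driven luciferase reporter, 5×10^5 per well, stimulated with compounds for 20 h. Secreted luciferase in supernatant measured by luminescence; […].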
Background: A reporter such as luciferase makes a cellular process visible.

The target of another assay is T3, hSTING(H232) (Homo sapiens, UniProt Q86WV6).
T3 construct: host or cells: HEK293T
As to the kind of experiment: Luciferase reporter assay in HEK293T-hSTING-Luciferase cells, H232 polymorph. The class given is cell-based. The settings on record: 20 hr stimulation, read-out: H232 activity (EC50 range). The gist of the method:
as §1

In the next assay the test system is IRF pathway. The experiment in a line: Reporter gene expression assay in THP1-Dual cells, IRF axis (secreted Lucia luciferase). The class given is cell-based, human. The note with it: read-out: THP-IRF activity (EC50 range). The gist of the method: (§2)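 THP-1-derived cells carrying inducible NF-κB-SEAP and IRF-Lucia reporters, seeded at 5×10^5 and stimulated with compounds. After […], supernatant SEAP read with QUANTI-Blue and Lucia luciferase with QUANTI-Luc.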

The next assay has as its system NF-κB pathway. As to the kind of experiment: Reporter gene expression assay in THP1-Dual cells, NFkB axis (secreted SEAP). The settings on record: read-out: THP-NFKB activity (EC50 range). The class given is cell-based, human. The method in brief:
as §2

Where two headings read alike, the source gives them in different places.

T1 sequence (Q86WV6 whole entry R71H/G230A/H232R/R293Q): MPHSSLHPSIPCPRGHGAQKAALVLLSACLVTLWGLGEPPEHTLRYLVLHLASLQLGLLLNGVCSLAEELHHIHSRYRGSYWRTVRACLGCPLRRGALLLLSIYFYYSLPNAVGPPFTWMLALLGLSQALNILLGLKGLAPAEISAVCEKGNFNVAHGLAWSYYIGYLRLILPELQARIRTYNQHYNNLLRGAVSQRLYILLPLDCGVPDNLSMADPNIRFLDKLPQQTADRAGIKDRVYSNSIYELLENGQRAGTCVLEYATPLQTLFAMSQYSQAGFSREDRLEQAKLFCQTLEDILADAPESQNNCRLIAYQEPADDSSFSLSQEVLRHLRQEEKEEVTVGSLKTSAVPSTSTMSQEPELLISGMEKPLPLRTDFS
T2 sequence (Q86WV6 whole entry H232R): as the sequence (Q86WV6 whole entry R71H/G230A/H232R/R293Q) above, with H71R, A230G, Q293R counted along it
T3 sequence (Q86WV6 whole entry): as the sequence (Q86WV6 whole entry R71H/G230A/H232R/R293Q) above, with H71R, A230G, R232H, Q293R counted along it

By EC50 is commonly meant the concentration needed to bring the measured effect to its halfway point. Take `CC1Sc2ccc(C(=O)NCc3ccco3)nc2N(Cc2cc(F)cc(F)c2)C1=O` (centres unmarked) [Example 189, 4-(3,5-difluorobenzyl)-N-(furan-2-ylmethyl)-2-methyl-3-oxo-3,4-dihydro-2H-pyrido[3,2-b-1,4]thiazine-6-carboxamide]: the concentration giving a half-maximal response (EC50) at hSTING(HAQ) was 1 to 10 µM; at WT/R232 STING protein, under 1 µM; at hSTING(H232), 1 to 10 µM; with IRF pathway (Homo sapiens, THP1-Dual), over 10 µM; with NF-κB pathway (Homo sapiens, THP1-Dual), over 10 µM.

Turning to `CC1Sc2ncc(C(=O)NCc3cc4ccccc4o3)cc2N(Cc2cc(F)cc(F)c2)C1=O` (centres unmarked) [Example 193, N-(benzofuran-2-ylmethyl)-1-(3,5-difluorobenzyl)-3-methyl-2-oxo-2,3-dihydro-1H-pyrido[2,3-b][1,4]thiazine-7-carboxamide], the concentration giving a half-maximal response (EC50) on hSTING(HAQ) is 1 to 10 µM; at WT/R232 STING protein, under 1 µM; at hSTING(H232), 1 to 10 µM; in the assay with IRF pathway it was over 10 µM; with NF-κB pathway, over 10 µM.

On to `Cc1cc(CN2C(=O)CSc3ccc(C(=O)NCc4ccco4)cc32)cc(C(F)(F)F)c1` [Example 83, N-(furan-2-ylmethyl)-4-(3-methyl-5-(trifluoromethyl)benzyl)-3-oxo-3,4-dihydro-2H-benzo[b-1,4]thiazine-6-carboxamide], for which the EC50 on hSTING(HAQ) was over 10 µM; on WT/R232 STING protein, 1 to 10 µM; on hSTING(H232), over 10 µM; in the assay on IRF pathway (Homo sapiens, THP1-Dual), over 10 µM; in the assay with NF-κB pathway (Homo sapiens, THP1-Dual) it was over 10 µM.

Turning to `Cc1ccc(CNC(=O)c2ccc3c(c2)N(Cc2cc(F)cc(F)c2)C(=O)C(C)S3)o1` (centres unmarked) [Example 152, 4-(3,5-difluorobenzyl)-2-methyl-N-((5-methylfuran-2-yl)methyl)-3-oxo-3,4-dihydro-2H-benzo[b][1,4] thiazine-6-carboxamide], the concentration for a half-maximal effect (EC50) on hSTING(HAQ) was over 10 µM; at WT/R232 STING protein it was under 1 µM; at hSTING(H232) it was over 10 µM; with IRF pathway (Homo sapiens, THP1-Dual) it was over 10 µM; in the assay with NF-κB pathway (Homo sapiens, THP1-Dual) it was over 10 µM.

Take `C[C@H]1Oc2ccc(C(=O)NCc3c(F)cc(F)cc3F)cc2N(Cc2cc(F)cc(F)c2)C1=O` [Example 242, (R)-4-(3,5-difluorobenzyl)-2-methyl-3-oxo-N-(2,4,6-trifluorobenzyl)-3,4-dihydro-2H-benzo[b][1,4] oxazine-6-carboxamide]: the EC50 on hSTING(HAQ) is 1 to 10 µM; on WT/R232 STING protein, under 1 µM; at hSTING(H232), over 10 µM; in the assay with IRF pathway it was over 10 µM; with NF-κB pathway it was over 10 µM.

Regarding `CC1Sc2ccc(C(=O)NCc3ccccc3)nc2N(Cc2cc(F)cc(F)c2)C1=O` (centres unmarked) [Example 191, N-benzyl-4-(3,5-difluorobenzyl)-2-methyl-3-oxo-3,4-dihydro-2H-pyrido[3,2-b-1,4]thiazine-6-carboxamide], the EC50 at hSTING(HAQ) was 1 to 10 µM; at WT/R232 STING protein, under 1 µM; on hSTING(H232) it was 1 to 10 µM; with IRF pathway (Homo sapiens, THP1-Dual) it was 1 to 10 µM; in the assay with NF-κB pathway (Homo sapiens, THP1-Dual), 1 to 10 µM.

`C[C@@H]1Oc2ccc(C(=O)NCc3cc4ccccc4o3)cc2N(Cc2cc(F)cc(F)c2)C1=O` [Example 235, (S)-N-(benzofuran-2-ylmethyl)-4-(3,5-difluorobenzyl)-2-methyl-3-oxo-3,4-dihydro-2H-benzo[b-1,4]oxazine-6-carboxamide]: the EC50 at hSTING(HAQ) was 1 to 10 µM; on WT/R232 STING protein it was under 1 µM; on hSTING(H232) it was 1 to 10 µM; in the assay with IRF pathway (Homo sapiens, THP1-Dual), 1 to 10 µM; in the assay on NF-κB pathway (Homo sapiens, THP1-Dual), 1 to 10 µM.

As to `CC1Sc2ccc(C(=O)NCc3c(F)cc(F)cc3F)cc2N(Cc2ccncc2)C1=O` (centres unmarked) [Example 157, 2-methyl-3-oxo-4-(pyridin-4-ylmethyl)-N-(2,4,6-trifluorobenzyl)-3,4-dihydro-2H-benzo[b][1,4] thiazine-6-carboxamide], the concentration for a half-maximal effect (EC50) was 1 to 10 µM at hSTING(HAQ); under 1 µM at WT/R232 STING protein; 1 to 10 µM on hSTING(H232); 1 to 10 µM in the assay on IRF pathway (Homo sapiens, THP1-Dual); 1 to 10 µM with NF-κB pathway (Homo sapiens, THP1-Dual).

As to `O=C(NCc1ccco1)c1ccc2c(c1)N(Cc1c(Cl)cccc1Cl)C(=O)CS2` [Example 93, 4-(2,6-dichlorobenzyl)-N-(furan-2-ylmethyl)-3-oxo-3,4-dihydro-2H-benzo[b-1,4]thiazine-6-carboxamide], the EC50 was over 10 µM at hSTING(HAQ); 1 to 10 µM at WT/R232 STING protein; 1 to 10 µM at hSTING(H232); over 10 µM in the assay on IRF pathway (Homo sapiens, THP1-Dual); over 10 µM with NF-κB pathway (Homo sapiens, THP1-Dual).

On to `O=C(NCc1ccc(F)cc1)c1ccc2c(c1)N(Cc1c(F)cccc1Cl)C(=O)CS2` [Example 127, 4-(2-chloro-6-fluorobenzyl)-N-(4-fluorobenzyl)-3-oxo-3,4-dihydro-2H-benzo[b-1,4]thiazine-6-carboxamide], for which the concentration for a half-maximal effect (EC50) at hSTING(HAQ) was 1 to 10 µM; at WT/R232 STING protein it was 1 to 10 µM; on hSTING(H232), 1 to 10 µM; in the assay on IRF pathway (Homo sapiens, THP1-Dual), over 10 µM; in the assay on NF-κB pathway (Homo sapiens, THP1-Dual), over 10 µM.

On to `CC1Sc2ccc(C(=O)NCc3c(F)cc(F)cc3F)cc2N(Cc2cc(F)cc(F)c2)C1=O` (centres unmarked) [Example 153, 4-(3,5-difluorobenzyl)-2-methyl-3-oxo-N-(2,4,6-trifluorobenzyl)-3,4-dihydro-2H-benzo[b][1,4] thiazine-6-carboxamide], for which the EC50 at hSTING(HAQ) was 1 to 10 µM; at WT/R232 STING protein it was under 1 µM; at hSTING(H232) it was 1 to 10 µM; in the assay on IRF pathway (Homo sapiens, THP1-Dual), 1 to 10 µM; in the assay on NF-κB pathway (Homo sapiens, THP1-Dual) it was 1 to 10 µM.

With `Cc1ccc(CNC(=O)c2ccc3c(n2)N(Cc2cc(F)cc(F)c2)C(=O)C(C)S3)o1` (centres unmarked) [Example 190, 4-(3,5-difluorobenzyl)-2-methyl-N-((5-methylfuran-2-yl)methyl)-3-oxo-3,4-dihydro-2H-pyrido[3,2-b-1,4]thiazine-6-carboxamide], the EC50 is 1 to 10 µM on hSTING(HAQ); under 1 µM at WT/R232 STING protein; 1 to 10 µM on hSTING(H232); 1 to 10 µM in the assay on IRF pathway; 1 to 10 µM in the assay with NF-κB pathway.

Turning to `Cc1ccc(CNC(=O)c2cnc3c(c2)N(Cc2c(F)cccc2Cl)C(=O)C(C)S3)o1` (centres unmarked) [Example 195, 1-(2-chloro-6-fluorobenzyl)-3-methyl-N-((5-methylfuran-2-yl)methyl)-2-oxo-2,3-dihydro-1H-pyrido[2,3-b][1,4]thiazine-7-carboxamide], the EC50 is 1 to 10 µM on hSTING(HAQ); under 1 µM on WT/R232 STING protein; 1 to 10 µM on hSTING(H232); over 10 µM in the assay with IRF pathway (Homo sapiens, THP1-Dual); 1 to 10 µM in the assay with NF-κB pathway (Homo sapiens, THP1-Dual).

As to `CCCC1Sc2ccc(C(=O)NCc3c(F)cc(F)cc3F)cc2N(Cc2c(F)cccc2Cl)C1=O` (centres unmarked) [Example 147, 4-(2-chloro-6-fluorobenzyl)-3-oxo-2-propyl-N-(2,4,6-trifluorobenzyl)-3,4-dihydro-2H-benzo[b-1,4]thiazine-6-carboxamide], the concentration for a half-maximal effect (EC50) was 1 to 10 µM on hSTING(HAQ); under 1 µM on WT/R232 STING protein; 1 to 10 µM on hSTING(H232); over 10 µM in the assay on IRF pathway (Homo sapiens, THP1-Dual); over 10 µM with NF-κB pathway (Homo sapiens, THP1-Dual).

For `CC1(CO)Sc2ccc(C(=O)NCc3ccc(F)cc3F)cc2N(Cc2c(F)cccc2Cl)C1=O` (centres unmarked) [Example 151, 4-(2-chloro-6-fluorobenzyl)-N-(2,4-difluorobenzyl)-2-(hydroxymethyl)-2-methyl-3-oxo-3,4-dihydro-2H-benzo[b][1,4] thiazine-6-carboxamide], the concentration giving a half-maximal response (EC50) is 1 to 10 µM at hSTING(HAQ); under 1 µM at WT/R232 STING protein; 1 to 10 µM on hSTING(H232); 1 to 10 µM with IRF pathway (Homo sapiens, THP1-Dual); 1 to 10 µM in the assay with NF-κB pathway (Homo sapiens, THP1-Dual).

In the case of `O=C(NCc1c(F)cc(F)cc1F)c1cnc2c(c1)N(Cc1c(F)cccc1Cl)C(=O)CS2` [Example 178, 1-(2-chloro-6-fluorobenzyl)-2-oxo-N-(2,4,6-trifluorobenzyl)-2,3-dihydro-1H-pyrido[2,3-b-1,4]thiazine-7-carboxamide], the concentration giving a half-maximal response (EC50) was over 10 µM at hSTING(HAQ); under 1 µM at WT/R232 STING protein; over 10 µM at hSTING(H232); over 10 µM with IRF pathway (Homo sapiens, THP1-Dual); over 10 µM in the assay on NF-κB pathway (Homo sapiens, THP1-Dual).

For `CC1Sc2ccc(C(=O)NCc3c(F)cc(F)cc3F)cc2N(Cc2c(F)cccc2Cl)C1=O` (centres unmarked) [Example 138, 4-(2-chloro-6-fluorobenzyl)-2-methyl-3-oxo-N-(2,4,6-trifluorobenzyl)-3,4-dihydro-2H-benzo[b-1,4]thiazine-6-carboxamide], the EC50 at hSTING(HAQ) is under 1 µM; at WT/R232 STING protein it was under 1 µM; at hSTING(H232) it was under 1 µM; in the assay with IRF pathway (Homo sapiens, THP1-Dual) it was 1 to 10 µM; in the assay with NF-κB pathway (Homo sapiens, THP1-Dual), 1 to 10 µM.

As to `O=C(NCc1c(F)cc(F)cc1F)c1ccc2c(c1)N(Cc1cc(F)cc(F)c1)S(=O)(=O)CC2` [Example 284, 1-(3,5-Difluorobenzyl)-N-(2,4,6-trifluorobenzyl)-3,4-dihydro-1H-benzo[c][1,2]thiazine-7-carboxamide 2,2-dioxide], the concentration for a half-maximal effect (EC50) is over 10 µM on hSTING(HAQ); under 1 µM on WT/R232 STING protein; over 10 µM at hSTING(H232); over 10 µM with IRF pathway (Homo sapiens, THP1-Dual); over 10 µM in the assay on NF-κB pathway (Homo sapiens, THP1-Dual).

In the case of `O=C(NCc1c(F)cc(F)cc1F)c1ccc2c(c1)N(Cc1ccncc1)C(=O)CS2` [Example 39, 3-oxo-4-(pyridin-4-ylmethyl)-N-(2,4,6-trifluoro-benzyl)-3,4-dihydro-2H-benzo[b-1,4]thiazine-6-carboxamide], the half-maximal effective concentration (EC50) on hSTING(HAQ) was 1 to 10 µM; on WT/R232 STING protein it was 1 to 10 µM; on hSTING(H232) it was 1 to 10 µM; with IRF pathway (Homo sapiens, THP1-Dual), over 10 µM; in the assay on NF-κB pathway (Homo sapiens, THP1-Dual), over 10 µM.
